# ChEMBL document CHEMBL1201862, “PubChem BioAssay data set” (2004)
#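 1) Cells in 96-well plates. 2) Compound, 48 h, 5 concentrations. 3) Linear interpolation between surrounding doses. 4) Unreached endpoint = highest concentration. GI50 is the concentration that inhibits growth by half.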 Calls of active or inactive are those of the source. Rule as the data show it: active = GI50 up to about 1.1 µM and inactive = higher.
# Columns and labels:
# Test in all cases: DTP human tumour cell line panel, 48 h
# [1] = system: A498
# [2] = system: A549
# [3] = system: CAKI-1
# [4] = system: CCRF-CEM
# [5] = system: COLO 205
# [6] = system: DLD-1
# [7] = system: DMS-114
# [8] = system: DMS-273
# [9] = system: EKVX
# [10] = system: HCC 2998
# [11] = system: HCT-116
# [12] = system: HCT-15
# [13] = system: HL-60
# [14] = system: HOP-18
# [15] = system: HOP-62
# [16] = system: HOP-92
# [17] = system: HT-29
# [18] = system: IGROV-1
# [19] = system: K562
# [20] = system: KM-20L2
# [21] = system: KM12
# [22] = system: LOX IMVI
# [23] = system: M19-MEL
# [24] = system: MCF7
# [25] = system: MOLT-4
# [26] = system: Malme-3M
# [27] = system: NCI-H226
# [28] = system: NCI-H23
# [29] = system: NCI-H460
# [30] = system: NCI-H522
# [31] = system: NCI/ADR-RES
# [32] = system: OVCAR-3
# [33] = system: OVCAR-4
# [34] = system: OVCAR-5
# [35] = system: OVCAR-8
# [36] = system: RPMI-8226
# [37] = system: RXF 393
# [38] = system: SF-268
# [39] = system: SF-295
# [40] = system: SF-539
# [41] = system: SK-MEL-28
# [42] = system: SK-MEL-2
# [43] = system: SK-MEL-5
# [44] = system: SK-OV-3
# [45] = system: SN12C
# [46] = system: SNB-19
# [47] = system: SNB-75
# [48] = system: SNB-78
# [49] = system: SW-620
# [50] = system: U-251
# [51] = system: UACC-257
# [52] = system: UACC-62
# [53] = system: UO-31
# [54] = system: XF498
# [55] = system: SR
# [56] = system: 786-0
# [57] = system: ACHN
# [58] = system: LXFL 529
# [59] = system: M14
# [60] = system: TK-10
smiles,measurement,setting,value
Cc1c2ccncc2cc2c1[nH]c1ccccc12,GI50,[1],0.804 µM (active)
same,GI50,[2],3.22 µM (inactive)
same,GI50,[3],3.88 µM (inactive)
same,GI50,[4],3.78 µM (inactive)
same,GI50,[5],1.64 µM (inactive)
same,GI50,[6],5.01 µM (inactive)
same,GI50,[7],5.27 µM (inactive)
same,GI50,[8],1.19 µM (inactive)
same,GI50,[9],4.4 µM (inactive)
same,GI50,[10],5.04 µM (inactive)
same,GI50,[11],2.44 µM (inactive)
same,GI50,[12],4.2 µM
same,GI50,[13],3.41 µM (inactive)
same,GI50,[14],0.789 µM (active)
same,GI50,[15],8.71 µM (inactive)
same,GI50,[16],5.37 µM (inactive)
same,GI50,[17],4.42 µM (inactive)
same,GI50,[18],6.22 µM (inactive)
same,GI50,[19],3.48 µM (inactive)
same,GI50,[20],3.37 µM (inactive)
same,GI50,[21],4.56 µM (inactive)
same,GI50,[22],2.33 µM (inactive)
same,GI50,[23],3.81 µM (inactive)
same,GI50,[24],1.57 µM (inactive)
same,GI50,[25],1.98 µM (inactive)
same,GI50,[26],7.05 µM (inactive)
same,GI50,[27],6.14 µM (inactive)
same,GI50,[28],4.08 µM (inactive)
same,GI50,[29],1.77 µM (inactive)
same,GI50,[30],3.92 µM (inactive)
same,GI50,[31],3.01 µM (inactive)
same,GI50,[32],5.6 µM (inactive)
same,GI50,[33],6.12 µM (inactive)
same,GI50,[34],4.34 µM (inactive)
same,GI50,[35],3.44 µM (inactive)
same,GI50,[36],3.07 µM (inactive)
same,GI50,[37],2.68 µM (inactive)
same,GI50,[38],8.22 µM (inactive)
same,GI50,[39],5.02 µM (inactive)
same,GI50,[40],2.48 µM (inactive)
same,GI50,[41],3.85 µM (inactive)
same,GI50,[42],7.43 µM (inactive)
same,GI50,[43],3.97 µM (inactive)
same,GI50,[44],5.65 µM (inactive)
same,GI50,[45],1.58 µM (inactive)
same,GI50,[46],5.71 µM (inactive)
same,GI50,[47],5.26 µM (inactive)
same,GI50,[48],13 µM (inactive)
same,GI50,[49],2.42 µM (inactive)
same,GI50,[50],2.86 µM (inactive)
same,GI50,[51],5.55 µM (inactive)
same,GI50,[52],5.11 µM (inactive)
same,GI50,[53],3.45 µM (inactive)
same,GI50,[54],1.12 µM (active)
O=C(OC/C=C1C=C(OC(=O)c2ccccc2)/C(=N/N(C(=O)c2ccccc2)c2ccccc2)O\1)c1ccccc1,GI50,[3],< 0.01 µM (active)
same,GI50,[7],12.8 µM (inactive)
same,GI50,[10],< 0.01 µM (active)
same,GI50,[14],< 0.01 µM (active)
same,GI50,[19],< 0.01 µM (active)
same,GI50,[21],< 0.01 µM (active)
same,GI50,[25],< 0.01 µM (active)
same,GI50,[27],0.512 µM (active)
same,GI50,[36],< 0.01 µM (active)
same,GI50,[37],2.12 µM (inactive)
same,GI50,[46],< 0.01 µM (active)
same,GI50,[48],26.3 µM (inactive)
same,GI50,[55],< 0.01 µM (active)
same,GI50,[54],15.8 µM (inactive)
COC1OC(=O)[C@H]2O[N+]([O-])=C(C)[C@@H]12 (some centres undefined),GI50,[1],> 100 µM (inactive)
same,GI50,[2],> 100 µM (inactive)
same,GI50,[3],> 100 µM (inactive)
same,GI50,[4],> 100 µM (inactive)
same,GI50,[5],> 100 µM (inactive)
same,GI50,[6],> 100 µM (inactive)
same,GI50,[7],> 100 µM (inactive)
same,GI50,[9],> 100 µM (inactive)
same,GI50,[10],> 100 µM (inactive)
same,GI50,[11],> 100 µM (inactive)
same,GI50,[12],> 100 µM
same,GI50,[13],> 100 µM (inactive)
same,GI50,[14],> 100 µM (inactive)
same,GI50,[15],> 100 µM (inactive)
same,GI50,[16],> 100 µM (inactive)
same,GI50,[17],> 100 µM (inactive)
same,GI50,[18],> 100 µM (inactive)
same,GI50,[19],> 100 µM (inactive)
same,GI50,[20],> 100 µM (inactive)
same,GI50,[21],> 100 µM (inactive)
same,GI50,[22],> 100 µM (inactive)
same,GI50,[23],> 100 µM (inactive)
same,GI50,[24],> 100 µM (inactive)
same,GI50,[25],> 100 µM (inactive)
same,GI50,[26],> 100 µM (inactive)
same,GI50,[27],> 73.5 µM (inactive)
same,GI50,[28],> 100 µM (inactive)
same,GI50,[29],> 100 µM (inactive)
same,GI50,[30],> 100 µM (inactive)
same,GI50,[31],> 100 µM (inactive)
same,GI50,[32],> 100 µM (inactive)
same,GI50,[33],> 100 µM (inactive)
same,GI50,[34],> 100 µM (inactive)
same,GI50,[35],> 100 µM (inactive)
same,GI50,[36],> 100 µM (inactive)
same,GI50,[37],> 100 µM (inactive)
same,GI50,[38],> 100 µM (inactive)
same,GI50,[39],> 100 µM (inactive)
same,GI50,[40],> 100 µM (inactive)
same,GI50,[41],> 100 µM (inactive)
same,GI50,[42],> 100 µM (inactive)
same,GI50,[43],> 100 µM (inactive)
same,GI50,[44],> 100 µM (inactive)
same,GI50,[45],> 100 µM (inactive)
same,GI50,[46],> 100 µM (inactive)
same,GI50,[47],> 100 µM (inactive)
same,GI50,[48],> 100 µM (inactive)
same,GI50,[49],> 100 µM (inactive)
same,GI50,[50],> 100 µM (inactive)
same,GI50,[51],> 100 µM (inactive)
same,GI50,[52],> 100 µM (inactive)
same,GI50,[53],> 100 µM (inactive)
same,GI50,[54],> 100 µM (inactive)
CCOC(=O)COc1cccc2occc(=O)c12,GI50,[56],> 100 µM (inactive)
same,GI50,[1],> 100 µM (inactive)
same,GI50,[2],> 100 µM (inactive)
same,GI50,[57],> 100 µM (inactive)
same,GI50,[3],> 100 µM (inactive)
same,GI50,[4],> 100 µM (inactive)
same,GI50,[5],> 100 µM (inactive)
same,GI50,[6],> 100 µM (inactive)
same,GI50,[7],> 100 µM (inactive)
same,GI50,[8],> 100 µM (inactive)
same,GI50,[9],> 100 µM (inactive)
same,GI50,[10],> 100 µM (inactive)
same,GI50,[11],> 100 µM (inactive)
same,GI50,[12],> 100 µM
same,GI50,[13],> 100 µM (inactive)
same,GI50,[15],> 100 µM (inactive)
same,GI50,[16],> 100 µM (inactive)
same,GI50,[17],> 100 µM (inactive)
same,GI50,[18],> 100 µM (inactive)
same,GI50,[19],> 100 µM (inactive)
same,GI50,[20],> 100 µM (inactive)
same,GI50,[21],> 100 µM (inactive)
same,GI50,[22],> 100 µM (inactive)
same,GI50,[58],> 100 µM (inactive)
same,GI50,[59],> 100 µM (inactive)
same,GI50,[23],> 100 µM (inactive)
same,GI50,[25],> 100 µM (inactive)
same,GI50,[26],> 100 µM (inactive)
same,GI50,[28],> 100 µM (inactive)
same,GI50,[29],> 100 µM (inactive)
same,GI50,[30],> 100 µM (inactive)
same,GI50,[32],> 100 µM (inactive)
same,GI50,[33],> 100 µM (inactive)
same,GI50,[34],> 100 µM (inactive)
same,GI50,[35],> 100 µM (inactive)
same,GI50,[36],> 100 µM (inactive)
same,GI50,[38],> 100 µM (inactive)
same,GI50,[39],> 100 µM (inactive)
same,GI50,[40],> 100 µM (inactive)
same,GI50,[41],> 100 µM (inactive)
same,GI50,[42],> 100 µM (inactive)
same,GI50,[43],> 100 µM (inactive)
same,GI50,[44],> 100 µM (inactive)
same,GI50,[45],> 100 µM (inactive)
same,GI50,[46],> 100 µM (inactive)
same,GI50,[48],> 100 µM (inactive)
same,GI50,[49],> 100 µM (inactive)
same,GI50,[60],> 100 µM (inactive)
same,GI50,[50],> 100 µM (inactive)
same,GI50,[51],> 100 µM (inactive)
same,GI50,[52],> 100 µM (inactive)
same,GI50,[53],> 100 µM (inactive)
same,GI50,[54],> 100 µM (inactive)
